Measurements: ChEMBL document CHEMBL1152793, “Targeted delivery of compounds to Trypanosoma brucei using the melamine motif” (Bioorg Med Chem, 2009)
Active and inactive are the calls of the source. The calls are words filed in the database; no cut-off is given here.

Assays:
[1] = tested on: Trypanosoma brucei brucei; assay: Antitrypanosomal activity against TbAT1 knock out Trypanosoma brucei brucei mutant after 48 hrs by alamar blue assay; type: functional, organism-based
[2] = tested on: Trypanosoma brucei brucei; assay: Resistance factor, ratio of IC50 for TbAT1 knock out and pentamidine-resistant Trypanosoma brucei brucei B48 mutant to IC50 for wild type Trypanosoma brucei brucei s427; type: functional
[3] = tested on: Trypanosoma brucei brucei; assay: Resistance factor, ratio of IC50 for TbAT1 knock out Trypanosoma brucei brucei mutant to IC50 for wild type Trypanosoma brucei brucei s427; type: functional
[4] = tested on: Trypanosoma brucei brucei; assay: Antitrypanosomal activity against wild type Trypanosoma brucei brucei s427 after 48 hrs by alamar blue assay; type: functional, organism-based; conditions: s427, 48 h
[5] = tested on: Trypanosoma brucei brucei; assay: Antitrypanosomal activity against TbAT1 knock out and pentamidine-resistant Trypanosoma brucei brucei B48 mutant after 48 hrs by alamar blue assay; type: functional, organism-based
[6] = tested on: Trypanosoma brucei brucei; assay: Inhibition of DNA replication in wild type Trypanosoma brucei brucei s427 assessed as kinetoplast disintegrate at IC50 after 24 hrs by DAPI staining visualized by fluorescence microscopy; type: functional, organism-based

Structure (SMILES)	IC50 [1] [µM]	Ratio IC50 [2]	Ratio IC50 [3]	IC50 [4] [µM]	IC50 [5] [µM]	Activity [6]
CC1COc2c(N3CCN(C)CC3)c(F)cc3c(=O)c(C(=O)OCCCNc4nc(N)nc(N)n4)cn1c23 (stereo not drawn)	35.7	1	1.1	31.6	31.5	
C[C@H]1[C@H](OC(=O)CCC(=O)O)O[C@@H]2O[C@@]3(C)CC[C@H]4[C@H](C)CC[C@@H]1[C@@]24OO3 [ARTESUNATE]	15	2.1	1.2	12.8	27.5	
Nc1nc(N)nc(N2CCN(c3cc4c(cc3F)c(=O)c(C(=O)O)cn4C3CC3)CC2)n1				4940		
NCCCNc1nc(N)nc(N)n1	> 100			> 100	> 100	
CCn1cc(C(=O)O)c(=O)c2cc(F)c(N3CCNC(C)C3)c(F)c21 (stereo not drawn) [LOMEFLOXACIN]				197		
O=C(O)c1cn(C2CC2)c2cc(N3CCNCC3)c(F)cc2c1=O [CIPROFLOXACIN]				17.2		
NCCCC(N)(C(=O)OCCCNc1nc(N)nc(N)n1)C(F)F (stereo not drawn)	> 100			> 100	> 100	
C[C@H]1[C@H](OC(=O)CCC(=O)OCCCNc2nc(N)nc(N)n2)O[C@@H]2O[C@@]3(C)CC[C@H]4[C@H](C)CC[C@@H]1[C@@]24OO3	5	3	1.2	4	12.1	
NCCCC(N)(C(=O)NCCCNc1nc(N)nc(N)n1)C(F)F (stereo not drawn)	> 100			> 100	> 100	
Nc1nc(N)nc(NCCCC(N)(C(=O)O)C(F)F)n1 (stereo not drawn)				> 100		
CC1COc2c(N3CCN(C)CC3)c(F)cc3c(=O)c(C(=O)O)cn1c23 (stereo not drawn) [OFLOXACIN]				> 100		
CCn1cc(C(=O)O)c(=O)c2cc(F)c(N3CCN(c4nc(N)nc(N)n4)CC3)cc21	32.7	5.3	6.3	5.2	27.7	inactive
CCn1cc(C(=O)O)c(=O)c2cc(F)c(N3CCNCC3)cc21 [NORFLOXACIN]				39.9		Active
C[C@@H]1CN(c2c(F)c(N)c3c(=O)c(C(=O)O)cn(C4CC4)c3c2F)C[C@H](C)N1 [SPARFLOXACIN]				18.5		
CC1COc2c(N3CCN(C)CC3)c(F)cc3c(=O)c(C(=O)NCCCNc4nc(N)nc(N)n4)cn1c23 (stereo not drawn)	> 100			112	> 100	
CC(C)(C)OC(=O)NCCCC(N)(C(=O)NCCCNc1nc(N)nc(N)n1)C(F)F (stereo not drawn)	105		0.3	355	> 100	
Nc1nc(N)nc(NCCCO)n1	> 100			> 100	> 100	
C[C@H]1[C@H](OC(=O)CCC(=O)NCCCNc2nc(N)nc(N)n2)O[C@@H]2O[C@@]3(C)CC[C@H]4[C@H](C)CC[C@@H]1[C@@]24OO3	2.9	2.7	1.1	2.6	7.1	
CC(C)(C)OC(=O)NCCCC(N)(C(=O)OCCCNc1nc(N)nc(N)n1)C(F)F (stereo not drawn)	400	2.3	1	382	888	
